Read-outs that look alike come from different tables or passages of the source.
How the values were obtained:
Type in all cases: biochemical
Parameters in all cases: GG stays after cleavage) (N); made in house; host or cells: E. coli BL21(DE3)
PaPepA [1] = biological target: T1, PaPepA (Pseudomonas aeruginosa, UniProt Q02RY8); details: aa-pNA varied, 3 mM MnCl2, 100 nM PaPepA, pH 8.0, 25 °C
Description: (§1) A BMG Labtech POLARstar Omega plate reader was used for activity assays and kinetic studies involving amino acids conjugated to para-nitroaniline (pNA) (Sigma) or peptides as substrates. Assays were carried out at 25 °C in clear half-area 96-well plates (Greiner Bio-One). […] For kinetic assays investigating Leu-AMC as a substrate, a SpectraMax M2E was used. Reactions were carried out using black half-area 96-well plates with clear bottoms (Greiner Bio-One). Product formation was assessed by monitoring changes in fluorescence, with the excitation wavelength set at 341 nm and emission at 441 nm. The cutoff was 420 nm. PMT gain was set to medium, with six flashes per read. […] Calibration curves of pNA concentration vs absorbance and AMC vs fluorescence were constructed, and initial rate values were divided by the slope of these calibration curves to reveal the rate of product formation over time (Table S2).
(§2) For all assays excluding pH dependence curves, buffer conditions were as follows: 100 mM HEPES, 50 mM KCl, and pH 8.0. For assays carried out under pseudo-first-order conditions, one reaction component was fixed and in excess, while the other was varied. […] For assays involving variation of aa-pNA or aa-AMC, MnCl2 was added to a final concentration of 3 mM.

PaPepA [2] = biological target: T1, PaPepA; assay: Metal activation of Leu-pNA cleavage (metal varied, Leu-pNA fixed); details: with 2 mM Leu-pNA, pH 8.0
Description: as §1, §2

PaPepA [3] = biological target: T1, PaPepA; assay: Alcohol dehydrogenase peptide degradation assay (LC-MS); details: MassPREP ADH digest, 100 nM PaPepA, 3 mM MnCl2, overnight
Description: A vial of MassPREP ADH digestion standard (Waters) was reconstituted in 200 μL of LC-MS grade water. Reaction mixtures were prepared by combining 25 μL of ADH solution, 3 mM MnCl2, and 100 nM PaPepA (final concentrations) in a total volume of 50 μL buffer (100 mM HEPES pH 8.0, 50 mM KCl). For control reactions, the addition of PaPepA was omitted. Samples and controls were each prepared in triplicate and incubated overnight, and reactions quenched with the addition of […] of 10% TCA. Following the addition of acid, PaPepA was added to control samples to a final concentration of 50 nM (equivalent to a concentration of enzyme in the reaction samples following acid quenching). Samples were concentrated to 20 μL. A 1 μL portion of this was diluted in 100 μL of LC-MS grade water. 10 μL was injected and analyzed on a SCIEX TripleTOF 5600+ mass spectrometer with an Eksigent 425 nanoLC configured in trap elute configuration. Each sample was loaded onto the trap (Waters ACQUITY M-Class symmetry column 180 μm × 20 mm) and washed with 0.05% TFA in water for 5 min at 5 μL/min. The trap was then switched in line with the Waters M-Class HSS1 analytical column, 75 μm × 150 mm, with a flow rate of 300 nL/min. Samples were eluted over 30 min using a linear gradient from 98% A (100% water 0.1% FA) 2% B (80% MeCN, […] 0.1% FA) to 60% A, 40% B linearly over 12 min, rising to 5% A, 95% B, before returning to 98% A to re-equilibrate. Eluate from the column was sprayed directly into the nanospray source of the mass spectrometer. MS data were collected from 400 to 1250 m/z as the survey scan, and under data-dependent acquisition (DDA) setting, the top 20 strongest peptides were selected for MS/MS using CID fragmentation. Peptide mass tolerance was 20 ppm on the MS and 0.1 Da on the MS/MS.
Identification and analysis of ADH peptides were performed using the Skyline open-access software package (version 22.2). Raw data were extracted using msConvert (ProteoWizard) and the data searched using Skyline against the ADH1 sequence from Saccharomyces cerevisiae (UniProt: P00330). The digestion enzyme was set as trypsin, allowing up to three missed cleavages. Searches encompassed peptides between 400 and 1250 m/z with a mass tolerance of 0.3 m/z. Carbamidomethyl was set as a fixed modification for cysteine residues. Data were searched for the protonated 1+, 2+, and 3+ charge states of each peptide.
Peaks were integrated, and areas were used to qualitatively assess differences in peptide abundances across PaPepA-digested samples and controls. Peptides present in control samples but absent in reactions (integrated area <1000) were classified as “digested”.

PaPepA [4] = biological target: T1, PaPepA; details: 5 % PEG 8000, labelled component varied, other saturating; in 1/s
PaPepA [5] = biological target: T1, PaPepA; details: labelled component varied
From the text: Viscosity effects were studied by using sucrose as a viscogen. Relative viscosities for different concentrations of sucrose were taken from Bazelyansky et al.[27] Concentrations of viscogen were as follows: 14% sucrose, ηrel = 1.5; 24% sucrose, ηrel = 2.2; and 32% sucrose, ηrel = 2.9.
Viscosity effects were fit to the following equation, where kinetic parameter0 and kinetic parameterη are kcat or kcat/KM in the […] of viscogen, respectively, ηrel is the relative viscosity of the solution, and m is the slope. [drawing 4] 4
All measurements were performed in triplicate.

PaPepA [6] = biological target: T1, PaPepA; assay: Pre-steady-state stopped-flow kinetics with global fit; details: global fit
Description: An Applied Photophysics SX20 stopped-flow spectrofluorimeter was used to perform kinetic measurements under pre-steady-state conditions. The instrument was equipped with a xenon lamp, a 5 μL mixing cell, and a circulating water bath to maintain constant temperature. All reactions were carried out in 100 mM HEPES (pH 8.0) and 50 mM KCl at 25 °C. Enzyme and metal ions were kept in one syringe, while the other substrate (Leu-pNA or Leu-AMC) was kept in the second syringe. The reaction was triggered by rapid mixing of 55 μL from each syringe. Three traces with 10,000 points per trace were collected per experiment.
For absorbance measurements, product formation was monitored by reading the pNA absorbance at 405 nm (5 mm path length). Multiple turnover rates were measured in the presence of saturating concentrations of both metal and Leu-pNA. PaPepA was present at 1 or 10 μM, MnCl2 was present at 3 mM, and Leu-pNA was present at 250 μM. For fluorescence measurements, a path length of 1 mm was used. Reactions were followed by monitoring the appearance of a 7-amino-4-methylcoumarin (AMC) fluorophore following PaPepA-catalyzed breakdown of Leu-AMC. An excitation wavelength of 341 nm was used with a 400 nm cutoff filter for the emission. Slits were 1 nm for excitation and 2 nm for emission.
Experiments under single turnover conditions monitored fluorescence change with a detector voltage of 300 V, 0.1 μM Leu-AMC, 1.5 mM MnCl2, and varying PaPepA (0.5, 1, 2, 4, 8, 16, or 32 μM). Experiments under multiple turnover conditions monitored fluorescence change with a detector voltage of 250 V, 50 μM Leu-AMC, 1.2 μM PaPepA and varying concentrations of MnCl2 (0.2, 0.4, 0.6, 1.2, 2.4, 6, 9, 12, 18, 24, 60, 120, 1200, or 3600 μM).
Calibration curves of known concentrations of AMC were performed at detector voltages of 250 and 300 V. STO and MTO curves were divided by the slope of these calibration curves to convert the change in fluorescence observed to the concentration of AMC produced.
Pre-steady-state data were imported into KinTek Global Explorer and fit to linear or single-exponential equations using the aFit function to obtain standard deviation estimates. A kinetic model with five steps was considered, and rate constants and outputs were fitted according to this model. Initial estimates for rate constants were based on kcat and KM values. The FitSpace Editor was employed to determine confidence intervals for each of the rate constants. More details including model fitted and parameters used are available in the Supporting Information.
Supporting information note 4: Kintek Global Explorer fitting of stopped flow data Both MTO and STO pre-steady-state data were fit according to the mode described in Figure 4A with scaling factors for each fluorescent species (EP and P) to account for differences in AMC fluorescence whilst in complex with PaPepA versus free in solution. Scaling factors were different across STO and MTO experiments as both were carried out using different detector voltages.
The model that best fitted acquired data was as below, where F is metal free enzyme, E1 is PaPepA with one Mn2+ ion, E is PepA with two Mn2+ ions, S is Leu- […]
For fitting, k1 and k-1 ratios were constrained (linked) based KD for Mn2+ binding as measured by ITC (12nM). Initially, k2 and k-2 were allowed to vary without constraints, and values best fitted as well as Fitspace lower and upper boundaries are reported in Table 2. The value for k1 was best fitted as diffusion limited, and therefore was fixed in further fitting cycles. The best fitted value for k-2 was high and unconstrained, and therefore also fixed at 1000 s-1 for further fitting cycles. k3, k-3, k4, and k5 were not constrained. Multiple iterations of fitting were performed, and best fit values recorded. k1, k2, k3, k-3, k4, and k5 were evaluated using FitSpace Explorer to generate confidence intervals for each of these rate constants. […]

T1 sequence (Q02RY8 whole entry): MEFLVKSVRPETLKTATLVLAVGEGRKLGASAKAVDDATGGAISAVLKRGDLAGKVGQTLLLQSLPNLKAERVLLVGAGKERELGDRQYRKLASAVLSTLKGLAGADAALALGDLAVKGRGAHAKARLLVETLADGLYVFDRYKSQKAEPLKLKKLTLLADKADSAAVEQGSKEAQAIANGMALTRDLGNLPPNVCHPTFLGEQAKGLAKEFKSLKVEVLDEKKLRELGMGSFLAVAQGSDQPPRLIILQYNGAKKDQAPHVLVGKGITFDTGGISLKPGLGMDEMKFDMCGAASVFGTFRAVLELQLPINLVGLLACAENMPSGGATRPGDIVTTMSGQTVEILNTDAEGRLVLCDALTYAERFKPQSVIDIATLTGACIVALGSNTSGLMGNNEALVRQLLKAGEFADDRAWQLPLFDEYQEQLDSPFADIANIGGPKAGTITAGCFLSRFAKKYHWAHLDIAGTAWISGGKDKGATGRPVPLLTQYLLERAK

CSCC[C@H](N)C(=O)Nc1ccc([N+](=O)[O-])cc1 [Met-pNA]
Km (PaPepA [1]): 150 ± 20 µM | kcat (PaPepA [1]): 0.084 ± 0.003 s^–1

[Ni+2] [Ni^2+]
KACT (PaPepA [2]): 2.5 ± 0.4 mM | kcat (PaPepA [2]): 0.077 ± 0.003 s^–1 | kcat/KACT (PaPepA [2]): 0.032 ± 0.005 s^–1mM^–1

[Fe+2] [Fe^2+]
KACT (PaPepA [2]): >10 mM | kcat (PaPepA [2]): 0.012 ± 0.003 s^–1

EKDIVGAVLK [tryptic peptide of yeast ADH (MassPREP digestion standard)]
Cleaved? (PaPepA [3]): Not digested

YSGVC[+57.0]HTDLHAWHGDWPLPVK: tryptic peptide of yeast ADH, carbamidomethyl cysteine
Cleaved? (PaPepA [3]): Digested (Peptides present in control samples but absent in reactions (integrated area <1000) were classified as “digested”)

O=C(Nc1ccc([N+](=O)[O-])cc1)[C@@H]1CCCN1 [Pro-pNA]
kcat (PaPepA [1]): 0.081 ± 0.003 s^–1 | Km (PaPepA [1]; read-out: KM): 1200 ± 80 µM

NCCCC[C@H](N)C(=O)Nc1ccc([N+](=O)[O-])cc1 [Lys-pNA]
Km (PaPepA [1]): 280 ± 40 µM | kcat (PaPepA [1]): 0.039 ± 0.002 s^–1

CC(C)C[C@H](N)C(=O)Nc1ccc([N+](=O)[O-])cc1 [Leu-pNA, reference compound]
kcat (PaPepA [4]): 0.391 ± 0.008 | Km (PaPepA [1]): 160 ± 10 µM | kcat (PaPepA [1]): 0.254 ± 0.005 s^–1 | kcat (PaPepA [5]; H2O (0% PEG-8000), other saturating, in 1/s): 0.335 ± 0.004 | Slope (sucrose) on kcat (PaPepA [5]; sucrose as viscogen): 0.03 ± 0.01

N[C@@H](Cc1ccccc1)C(=O)Nc1ccc([N+](=O)[O-])cc1 [Phe-pNA]
Km (PaPepA [1]): 260 ± 50 µM | kcat (PaPepA [1]): 0.115 ± 0.008 s^–1

Cc1cc(=O)oc2cc(NC(=O)[C@H](N)CC(C)C)ccc12 [Leu-AMC]
k3, best-fitted value (PaPepA [6]; E + S = ES, S is Leu-AMC): 2.3 ± 0.1 μM^–1 s^–1 | k-3, best-fitted value (PaPepA [6]; E + S = ES, reverse, S is Leu-AMC): 47.9 ± 0.6 s^–1 | k5, best-fitted value (PaPepA [6]; EP = E + P): 13.4 ± 0.1 s^–1 | k4, best-fitted value (PaPepA [6]; ES = EP): 6.3 ± 0.1 s^–1

CCC(C)[C@H](N)C(=O)Nc1ccc([N+](=O)[O-])cc1 (some centres unmarked) [Ile-pNA]
Km (PaPepA [1]): 100 ± 30 µM | kcat (PaPepA [1]): 0.004 ± 0.000 s^–1

[Co+2] [Co^2+]
KACT (PaPepA [2]): 0.17 ± 0.01 mM | kcat (PaPepA [2]): 0.137 ± 0.002 s^–1 | kcat/KACT (PaPepA [2]): 0.80 ± 0.06 s^–1mM^–1

C[C@H](N)C(=O)Nc1ccc([N+](=O)[O-])cc1 [Ala-pNA]
Km (PaPepA [1]): 220 ± 30 µM | kcat (PaPepA [1]): 0.037 ± 0.001 s^–1

GVIFYESHGK [tryptic peptide of yeast ADH (MassPREP digestion standard)]
Cleaved? (PaPepA [3]): Digested (Peptides present in control samples but absent in reactions (integrated area <1000) were classified as “digested”)

CC(C)[C@H](N)C(=O)Nc1ccc([N+](=O)[O-])cc1 [Val-pNA]
Km (PaPepA [1]): 50 ± 40 µM | kcat (PaPepA [1]): 0.002 ± 0.001 s^–1

VLGIDGGEGK [tryptic peptide of yeast ADH (MassPREP digestion standard)]
Cleaved? (PaPepA [3]): Digested (Peptides present in control samples but absent in reactions (integrated area <1000) were classified as “digested”)
